Among the data in patent US9206130B2, “Quinoline derivatives as AXL kinase inhibitors” (Max-Planck-Gesellschaft zur Förderung der Wissenschaften …, priority 2008, dated 2015) are melting point and IC50 values, retold here.

Data set [1] deals with T1, wild type AXL (wtAXL) receptor tyrosine kinase (Homo sapiens, UniProt P30530).
T1 construct: WtAXL cDNA was cloned into vector pLXSN(ESK) and transfected into Phoenix E packaging cells; expressed in transfected cells; host or cells: NIH3T3 N7 mouse fibroblasts, retrovirally infected (clone 22)
T1 sequence (P30530 26-894): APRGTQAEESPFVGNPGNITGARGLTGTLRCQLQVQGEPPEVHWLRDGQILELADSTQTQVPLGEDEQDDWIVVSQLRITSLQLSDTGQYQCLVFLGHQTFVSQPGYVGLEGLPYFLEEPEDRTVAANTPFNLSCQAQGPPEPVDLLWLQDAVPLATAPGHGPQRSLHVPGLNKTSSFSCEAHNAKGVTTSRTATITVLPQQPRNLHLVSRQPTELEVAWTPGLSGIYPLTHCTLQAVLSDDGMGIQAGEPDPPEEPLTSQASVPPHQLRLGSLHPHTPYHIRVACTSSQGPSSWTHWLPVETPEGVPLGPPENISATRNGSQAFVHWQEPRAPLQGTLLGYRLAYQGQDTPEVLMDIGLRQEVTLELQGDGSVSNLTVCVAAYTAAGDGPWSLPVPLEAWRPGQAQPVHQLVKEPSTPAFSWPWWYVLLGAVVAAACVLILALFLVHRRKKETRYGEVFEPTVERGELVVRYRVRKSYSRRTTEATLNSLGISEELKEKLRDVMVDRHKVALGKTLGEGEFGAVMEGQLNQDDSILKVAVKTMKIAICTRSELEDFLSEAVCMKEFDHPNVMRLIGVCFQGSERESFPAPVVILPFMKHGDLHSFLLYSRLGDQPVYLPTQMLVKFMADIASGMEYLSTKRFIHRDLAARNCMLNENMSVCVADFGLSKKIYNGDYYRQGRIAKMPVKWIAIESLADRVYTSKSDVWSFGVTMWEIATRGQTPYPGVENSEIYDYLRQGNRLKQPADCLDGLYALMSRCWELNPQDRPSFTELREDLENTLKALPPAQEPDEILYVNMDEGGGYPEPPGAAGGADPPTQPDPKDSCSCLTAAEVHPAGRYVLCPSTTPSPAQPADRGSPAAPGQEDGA
Briefly: NIH-3T3-AXL cellular tyrosine kinase assay (inhibition of AXL phosphorylation). The format is cell-based. Particulars: AXL phosphorylation in NIH-3T3-AXL (clone 22) cells, serum-depleted, 2 h with compound, immunoprecipitation / anti-phosphotyrosine blot. A digest of the protocol:
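NIH3T3 clones stably expressing human wtAXL (puromycin-selected) were exposed to serially diluted compounds for 2 h. AXL was immunoprecipitated from lysates with anti-AXL antibody, and phosphorylation detected by anti-phosphotyrosine (4G10) western blot with ECL.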

SMILES strings stand for the structures.

The compound `COc1cc2nccc(Oc3ccc(NS(=O)(=O)c4cccc(-c5ccccc5)c4)cc3)c2cc1OC` [Example A86, Biphenyl-3-sulfonic acid [4-(6,7-dimethoxy-quinolin-4-yloxy)-phenyl]-amide] registered a melting point of 197 to 200 °C. The 50% inhibitory concentration (IC50) in data set [1] is greater than 1 µM.
In turn, `COc1cc2nccc(Oc3ccc(NS(=O)(=O)c4ccccc4OC)c(F)c3)c2cc1OC` [Example A52, N-[4-(6,7-Dimethoxy-quinolin-4-yloxy)-2-fluoro-phenyl]-2-methoxy-benzenesulfonamide] had a melting point of 213 to 215 °C. Moreover, the IC50 in data set [1] was greater than 3 µM.
The corresponding values for `COc1cc(S(=O)(=O)Nc2ccc(Oc3ccnc4cc(OC)c(OC)cc34)cc2C)ccc1F` [Example A154, N-[4-(6,7-Dimethoxy-quinolin-4-yloxy)-2-methyl-phenyl]-4-fluoro-3-methoxy-benzenesulfonamide] are 228 to 229 °C and greater than 10 µM.
On the same counts, the results for `COc1cc2nccc(Oc3ccc(NS(=O)(=O)c4cc(C)ccc4NC(C)=O)cc3)c2cc1OC` [Example A65, N-{2-[4-(6,7-Dimethoxy-quinolin-4-yloxy)-phenylsulfamoyl]-4-methyl-phenyl}-acetamide] are 134 to 136 °C and greater than 10 µM.
The corresponding values for `CCc1ccc(S(=O)(=O)Nc2ccc(Oc3ccnc4cc(OC)c(OC)cc34)cc2F)cc1` [Example A56, N-[4-(6,7-Dimethoxy-quinolin-4-yloxy)-2-fluoro-phenyl]-4-ethyl-benzenesulfonamide] are 193 to 195 °C and greater than 1 µM.
`COc1cc2nccc(Oc3ccc(NS(=O)(=O)c4sc(NC(C)=O)cc4C)c(F)c3)c2cc1OC` [Example A7, N-{5-[4-(6,7-Dimethoxy-quinolin-4-yloxy)-2-fluoro-phenylsulfamoyl]-4-methyl-thiophen-2-yl}-acetamide] had a melting point of 133 to 135 °C. The IC50 in data set [1] is greater than 10 µM.
The corresponding values for `COc1cc2nccc(Oc3ccc(NS(=O)(=O)c4ccc(Br)c(C)c4)c(F)c3)c2cc1OC` [Example A19, 4-Bromo-N-[4-(6,7-dimethoxy-quinolin-4-yloxy)-2-fluoro-phenyl]-3-methyl-benzenesulfonamide] are 199 to 201 °C and 4.5 µM.
Compound `COc1cc2nccc(Oc3ccc(NS(=O)(=O)c4cc(C(F)(F)F)ccc4Br)c(F)c3)c2cc1OC` [Example A46, 2-Bromo-N-[4-(6,7-dimethoxy-quinolin-4-yloxy)-2-fluoro-phenyl]-5-trifluoromethyl-benzenesulfonamide] came in with a melting point of 227 to 230 °C. Moreover, the concentration for half-maximal inhibition (IC50) in data set [1] was greater than 10 µM.
On the same counts, the results for `COc1cc2nccc(Oc3ccc(NS(=O)(=O)c4cc(Cl)cc(Cl)c4O)c(F)c3)c2cc1OC` [Example A5, 3,5-Dichloro-N-[4-(6,7-dimethoxy-quinolin-4-yloxy)-2-fluoro-phenyl]-2-hydroxy-benzenesulfonamide] are 232 to 234 °C and 0.5 µM.
With `COC(=O)c1sccc1S(=O)(=O)Nc1ccc(Oc2ccnc3cc(OC)c(OC)cc23)cc1F` [Example A9, 3-[4-(6,7-Dimethoxy-quinolin-4-yloxy)-2-fluoro-phenylsulfamoyl]-thiophene-2-carboxylic acid methyl ester], the melting point fell in the range of 189 to 190 °C. Also, the half-maximal inhibitory concentration (IC50) in data set [1] amounted to 3.7 µM.
The corresponding values for `COc1cc2c(Oc3ccc(NS(=O)(=O)c4ccccc4C#N)cc3F)ccnc2cc1OCCCN1CCC(C)CC1` [Example D23, 2-Cyano-N-(3-fluoro-4-{6-methoxy-7-[3-(4-methyl-piperidin-1-yl)-propoxy]-quinolin-4-yloxy}-phenyl)-benzenesulfonamide] are 139 to 142 °C and 0.211 µM.
For `COc1ccc(S(=O)(=O)Nc2ccc(Oc3ccnc4cc(OC)c(OC)cc34)cc2)cc1Br` [Example A74, 3-Bromo-N-[4-(6,7-dimethoxy-quinolin-4-yloxy)-phenyl]-4-methoxy-benzenesulfonamide], the melting point lay in the range of 211 to 212 °C. The half-maximal inhibitory concentration (IC50) in data set [1] is greater than 1 µM.
On the same counts, the results for `Cc1cc(Oc2ccc(NS(=O)(=O)c3ccc(-c4ccccc4)cc3)c(F)c2)c2cccc(C(F)(F)F)c2n1` [Example C15] are 215 to 217 °C and greater than 10 µM.
For the compound `COc1cc2nccc(Oc3ccc(NS(=O)(=O)c4csc5ccccc45)cc3)c2cc1OC` [Example A84, Benzo[b]thiophene-3-sulfonic acid [4-(6,7-dimethoxy-quinolin-4-yloxy)-phenyl]-amide], the melting point fell in the range of 267 to 270 °C. Besides, in data set [1], the concentration for half-maximal inhibition (IC50) was greater than 3 µM.
Take `COc1cc2c(Oc3ccc(NS(=O)(=O)c4ccc(OC)c5ccccc45)cc3F)ccnc2cc1OCCN1CCOCC1` [Example D13, 4-Methoxy-naphthalene-1-sulfonic acid {3-fluoro-4-[6-methoxy-7-(2-morpholin-4-yl-ethoxy)-quinolin-4-yloxy]-phenyl}-amide]: the melting point is 189 to 190 °C. Moreover, in data set [1], the IC50 came out at 0.057 µM.
The compound `COc1cc2nccc(Oc3ccc(NS(=O)(=O)c4cc5ccccc5s4)c(C)c3)c2cc1OC` [Example A94, Benzo[b]thiophene-2-sulfonic acid [4-(6,7-dimethoxy-quinolin-4-yloxy)-2-methyl-phenyl]-amide] registered a melting point of 255 to 257 °C. Moreover, the IC50 in data set [1] is greater than 10 µM.
Compound `CCCCS(=O)(=O)Nc1ccc(Oc2ccnc3cc(OCCCN4CCCC(C)C4)c(OC)cc23)c(F)c1` (stereo not shown) [Example D25, Butane-1-sulfonic acid (3-fluoro-4-{6-methoxy-7-[3-(3-methyl-piperidin-1-yl)-propoxy]-quinolin-4-yloxy}-phenyl)-amide] showed a melting point of 104 to 106 °C. For the same compound, the IC50 in data set [1] was found to be 0.378 µM.
On the same counts, the results for `COc1cc2nccc(Oc3ccc(NS(=O)(=O)C4CC4)c(F)c3)c2cc1OC` [Example A33, Cyclopropanesulfonic acid [4-(6,7-dimethoxy-quinolin-4-yloxy)-2-fluoro-phenyl]-amide] are 179 to 180 °C and greater than 10 µM.
Turning to `Cc1cc(Oc2ccc(NS(=O)(=O)c3c(Cl)cccc3Cl)c(F)c2)c2cccc(C(F)(F)F)c2n1` [Example C06, 2,6-Dichloro-N-[2-fluoro-4-(2-methyl-8-trifluoromethyl-quinolin-4-yloxy)-phenyl]-benzenesulfonamide], the melting point lay in the range of 171 to 173 °C. For the same compound, the concentration for half-maximal inhibition (IC50) in data set [1] was greater than 10 µM.
`Cc1cc(Oc2ccc(NS(=O)(=O)c3cc(Cl)ccc3Cl)c(F)c2)c2cccc(C(F)(F)F)c2n1` [Example C05, 2,5-Dichloro-N-[2-fluoro-4-(2-methyl-8-trifluoromethyl-quinolin-4-yloxy)-phenyl]-benzenesulfonamid] gave a melting point of 207 to 209 °C. In data set [1], the IC50 is greater than 10 µM.
